Laboratory results reported in patent publication US20120157492A1, “ANTIBIOTIC DRUG” (priority 2008, published 2012).
≈ marks a conversion by molar mass, not a printed value. Like-named read-outs stand apart in the source and are kept apart here.

Assays:
[1] = tested on: 8 ATCC reference strains and 10 clinical strains (E. coli, P. aeruginosa, S. aureus, E. faecalis, E. faecium, S. pneumoniae, H. influenzae, N. gonorrhoeae); assay: Inhibition of bacteria, MIC by broth microdilution (CLSI); assay type: cell-based
Procedure: Minimum inhibitory concentrations (MICs) were determined by the Broth microdilution method following the guidelines of the Clinical and Laboratory Standards Institute (CLSI). See, e.g., “Methods for Dilution Antimicrobial Susceptibility Tests for Bacterial That Grow Aerobically,” CLSI 2006, Approved standard-7th Ed. M7-A7; and “Performance standards for Antimicrobial Susceptibility Testing,” CLSI 2007, 17th Informational Supplement, M100-S17. Note that since there is no CLSI recommended broth microdilution (BMD) method for N. gonorrhoeae, the BMD method recommended for N. meningitis was used. Each of the three compounds was dissolved in water before sterile filtration to prepare stock solutions. The stock solutions were stored at −20° C. in aliquots. […] The 2× stock was dispensed at 50 μl per well into the 96-well microtitre plates. The plates were either used fresh or stored at −80° C. before use. To conduct the test, an aliquot of the frozen bacterial isolates was subcultured onto sheep blood agar for all species except that H. influenzae and N. gonorrhoeae were subculuted on chocolate plates. All plate media were purchased from BBL (Becton Dickinson Microbiology System, Cockeysville, Md.). The day before the antimicrobial susceptibility testing, all bacteria were sub-cultured again to obtain fresh starting cultures. […]

[2] = tested on: S. pneumo-Levo (S): Clinical isolate of S. pnemoniae Levofloxacin sensitive strains; assay: MIC by broth microdilution, levofloxacin-sensitive S. pneumoniae; assay type: cell-based; settings: Streptococcus pneumoniae
Procedure: (§1) Minimum inhibitory concentrations (MICs) were determined by the Broth microdilution method following the guidelines of the Clinical and Laboratory Standards Institute (CLSI). See, e.g., “Methods for Dilution Antimicrobial Susceptibility Tests for Bacterial That Grow Aerobically,” CLSI 2006, Approved standard-7th Ed. M7-A7; and “Performance standards for Antimicrobial Susceptibility Testing,” CLSI 2007, 17th Informational Supplement, M100-S17. Note that since there is no CLSI recommended broth microdilution (BMD) method for N. gonorrhoeae, the BMD method recommended for N. meningitis was used.
(§2) MICs were determined using the broth microdilution method.

[3] = tested on: MRSA-CIP (S): Clinical isolate of MRSA-ciprofloxacin sensitive strain; assay: MIC by broth microdilution, ciprofloxacin-sensitive MRSA; assay type: cell-based; settings: Staphylococcus aureus
Procedure: as §1, §2

[4] = tested on: MRSA-CIP (R): Clinical isolate of MRSA-ciprofloxacin resistant strain; assay: MIC by broth microdilution, ciprofloxacin-resistant MRSA; assay type: cell-based, S. aureus; settings: Staphylococcus aureus
Procedure: as §1, §2

[5] = tested on: S. pneumo-Levo (R): Clinical isolate of S. pnemoniae Levofloxacin resistant strains; assay: MIC by broth microdilution, levofloxacin-resistant S. pneumoniae; assay type: cell-based; settings: Streptococcus pneumoniae
Procedure: as §1, §2

[6] = Pharmacokinetic study in rats (IV and PO); assay type: in vivo; settings: male, Sprague-Dawley, plasma, rat; for half-life: read-out: terminal half-life (t1/2) (converted); for bioavailability: oral, read-out: oral bioavailability (% F)
Procedure: Each of the malic acid salts of Compound 1 and Compound 1′ was dissolved in 0.7% lactic acid and 3% dextrose in water at a pH about 4.5 and 2.5% L-glutamic acid in water at a pH about 5.4 to provide solutions used in this pharmacokinetic study. Male Sprague-Dawley rats (BioLASCO Taiwan Co., Ltd., Taipei, Taiwan) weighing 300-400 g were surgically implanted with polyethylene (PE-50) cannula in the jugular vein for blood sampling while under pentobarbital anesthesia the day before the in-life phase. The rats were treated with a Compound 1 or Compound 1′ solution via intravenous injection (IV) at a dose of 2.5 mg/kg (N=3) or by oral gavage (PO) at a dose of 5 mg/kg (N=4). Dose levels were based on the free base form of the compounds. For PO study, the rats were fasted overnight with water ad libitum, and then dosed the next day. Serial blood samples were collected from animals pre-dose, at 5, 10 (IV only), 15, and 30 min, and at 1, 2, 4, 6, 8, 12, and 24 hours post-dose and heparinized plasma was recovered after centrifugation. Concentrations of the test compound in blood plasma were determined by liquid chromatography-mass spectrometry analysis (MDS SCIEX, API 3000, Applied Biosystems, CA, USA) with a lower limit of quantitation of 2 ng/mL. Standard pharmacokinetic parameters were assessed by non-compartmental analysis using WinNonlin (Version 4.0, Pharsight, CA, USA). The area under the concentration vs. time curve from the time of dosing to infinity (AUC(0-inf)) was calculated by the linear trapezoidal rule. Oral bioavailability (% F) was calculated from the dose-normalized ratio of plasma exposure following oral administration to the intravenous plasma exposure in the rats by the following equation: % F=(AUCpo/AUCiv)×(Div/Dpo)×100% where D is the dose and AUC is the area-under-the-plasma-concentration-time-curve from 0 to infinity.

| MIC50 [2] | MIC90 [2] | MIC50 [3] | MIC90 [3] | MIC50 [4] | MIC90 [4] | MIC50 [5] | MIC90 [5] | AUC(0-inf) ([6]; IV injection, 2.5 mg/kg) | half-life ([6]; IV injection, 2.5 mg/kg) | AUC(0-inf) ([6]; PO, 5 mg/kg) | Cmax ([6]; PO, 5 mg/kg, read-out: maximum of concentration (Cmax)) | half-life ([6]; PO, 5 mg/kg) | Tmax ([6]; PO, 5 mg/kg, read-out: time at the maximum of concentration (Tmax)) | bioavailability ([6]; 5 mg/kg) | SMILES | MICs against the tested bacterial strains, compared with ciprofloxacin [1] | efficacy in inhibiting bacteria compared to malic acid salt of Compound 1′ [1] |
| --- | --- | --- | --- | --- | --- | --- | --- | --- | --- | --- | --- | --- | --- | --- | --- | --- | --- |
| 0.03 µg/mL (≈ 0.0808 µM) | 0.06 µg/mL (≈ 0.162 µM) | 0.03 µg/mL (≈ 0.0808 µM) | 0.06 µg/mL (≈ 0.162 µM) | 1 µg/mL (≈ 2.69 µM) | 1 µg/mL (≈ 2.69 µM) | 0.25 µg/mL (≈ 0.673 µM) | 1 µg/mL (≈ 2.69 µM) | 1530 ± 66 ng·h/mL | 2.47 ± 0.801 h | 1400 ± 464 ng·h/mL | 622 ± 170 ng/mL | 3.58 ± 1.7 h | 0.25 h | ~45.9% | COc1c(N2C[C@H](C)C[C@H](N)C2)ccc2c(=O)c(C(=O)O)cn(C3CC3)c12 [Compound 1, 7-((3S,5R)-3-amino-5-methylpiperidin-1-yl)-1-cyclopropyl-8-methoxy-4-oxo-1,4-dihydroquinoline-3-carboxylic acid] | low MICs comparable with, or even lower than, that of ciprofloxacin | more efficacious in inhibiting in some S. aureus, H. influenzae, and P. aeruginosa stains |
| 0.06 µg/mL (≈ 0.162 µM) | 0.06 µg/mL (≈ 0.162 µM) | 0.03 µg/mL (≈ 0.0808 µM) | 0.06 µg/mL (≈ 0.162 µM) | 1 µg/mL (≈ 2.69 µM) | 2 µg/mL (≈ 5.38 µM) | 0.5 µg/mL (≈ 1.35 µM) | 2 µg/mL (≈ 5.38 µM) |  |  |  |  |  |  | 13.2 ± 3.3% | COc1c(N2C[C@@H](C)C[C@H](N)C2)ccc2c(=O)c(C(=O)O)cn(C3CC3)c12 [Compound 1′, reference compound] |  |  |
| 16 µg/mL (≈ 44.3 µM) |  |  |  |  |  | > 128 µg/mL |  |  |  |  |  |  |  |  | C[C@H]1COc2c(N3CCN(C)CC3)c(F)cc3c(=O)c(C(=O)O)cn1c23 [Levo, Levofloxacin] |  |  |
